# Laboratory results from US20160338989A1, “SOLID PHARMACEUTICAL COMPOSITIONS CONTAINING BENZOFURAN DERIVATIVES” (SANOFI, priority 1997, published 2016).
# Counter-ions that a name gives are not always drawn.
# How the values were obtained:
# [1] = Bioavailability after intake of food, man; format: in vivo; conditions: in particular fats
# Source text: (§1) This behaviour in intestinal medium probably makes it possible to explain in vivo the low bio-availability of dronedarone hydrochloride and the differences observed after administration with or without food, since it has been observed that the bio-availability of dronedarone hydrochloride in dogs and in man is increased after the intake of food, in particular fats, which can greatly modify the precipitation kinetics of this active principle and also help to place it in emulsion form.
# [2] = Dissolution at pH=4 and dilution to 1/10 with buffer of pH=7; format: physicochemical
# Experimental: Thus, it is possible to dissolve 400 mg of dronedarone hydrochloride in 200 ml of aqueous medium buffered to pH=4 (aqueous 0.1 M NaH2PO4 solution).
# On the other hand, in this medium diluted to 1/10 with an aqueous solution buffered to pH=7 (aqueous 0.1 M Na2HPO4 solution), dronedarone hydro-chloride precipitates (pH of the final medium: 6.7).
# [3] = Bioavailability after intake of food, dogs; format: in vivo; conditions: in particular fats
# Source text: as §1
# physchem = conditions: aqueous medium
# [4] = Test of maintenance in solution at pH=6.7, active principle alone; format: physicochemical; conditions: absence of surfactant; pH 6.7, 2 hours at 37° C.
# Experimental: Solutions were prepared containing 2 mg/ml of dronedarone. hydrochloride in hydrogenphosphate (NaH2PO4 buffered medium at pH=4.5 for 2 hours at 37° C. in the presence or absence of x % of nonionic hydrophilic surfactant to be studied, calculated on a weight basis relative to the active principle in base form.
# This solution was then diluted to 1/10th in a neutral phosphate medium (Na2HPO4+NaH2PO4), the pH of the final solution being 6.7.
# After 2 hours at 37° C., the solution was filtered through an Acrodisc brand 5 μm filter and the active principle in solution was assayed by UV spectrometry.
# [5] = Behaviour in the presence of bile salts; format: physicochemical; conditions: bile salts such as sodium taurocholate
compound,measurement,setting,value
"CCCCc1oc2ccc(NS(C)(=O)=O)cc2c1C(=O)c1ccc(OCCCN(CCCC)CCCC)cc1 [dronedarone hydrochloride, 2-n-butyl-3-[4-(3-di-n-butyl-aminopropoxy)benzoyl]-5-methylsul-phonamidobenzofuran]",bioavailability after the intake of food,[1],increased
same,behaviour on dilution to 1/10 with aqueous solution buffered to pH=7,"[2]; 0.1 M Na2HPO4, pH of the final medium 6.7",precipitates
same,amount that can be dissolved in 200 ml of aqueous medium,[2]; buffered to pH=4 (aqueous 0.1 M NaH2PO4 solution),400 mg
same,bioavailability after the intake of food,[3],increased
same,solubility,physchem; aqueous buffer,1000 to 2000 µg/mL
same,solubility,"physchem; pH 7, aqueous buffer",10 µg/mL
same,% of dronedarone hydrochloride in solution,[4],5%
same,behaviour in the presence of bile salts,[5],precipitates
